The compounds below were run on mutant Huntington (HTT) protein (assay: HTT Mutant HTRF iPSC assay (mHTT protein lowering)). Details: human iPSC derived from a HTT patient with a poly-Q49 mutation.
Format: cell-based
`COc1c(NC(=O)c2nc3ccc(N4CCC5(CN(C)C5)C4)nc3s2)cn2cc(C)nc2c1F` [Compound 114, N-(8-fluoro-7-methoxy-2-methylimidazo[1,2-a]pyridin-6-yl)-5-(2-methyl-2,6-diazaspiro[3.4]octan-6-yl)thiazolo[5,4-b]pyridine-2-carboxamide] showed an IC50 of less than 100 nM. `COc1cn2nc(C)cc2cc1NC(=O)c1nc2ccc(N3CCC4(CCCN4C)C3)nc2s1` (stereo not drawn) [Compound 116, N-(6-methoxy-2-methylpyrazolo[1,5-a]pyridin-5-yl)-5-(1-methyl-1,7-diazaspiro[4.4]nonan-7-yl)thiazolo[5,4-b]pyridine-2-carboxamide] gave an IC50 of 100 to 1000 nM. `COc1nc(NC(=O)c2nc3ccc(N4CC[C@@H](N(C)C)C4)nc3s2)cn2cc(C)nc12` [Compound 117, (R)-5-(3-(dimethylamino)pyrrolidin-1-yl)-N-(8-methoxy-2-methylimidazo[1,2-a]pyrazin-6-yl)thiazolo[5,4-b]pyridine-2-carboxamide] was tested, and the IC50 was less than 100 nM. With `CCN1CCN(c2ccc3nc(C(=O)Nc4cc5cn(C)nc5cc4OC)sc3n2)CC1` [Compound 118, 5-(4-ethylpiperazin-1-yl)-N-(6-methoxy-2-methyl-2H-indazol-5-yl)thiazolo[5,4-b]pyridine-2-carboxamide] the IC50 was 100 to 1000 nM. For `CCN1CCN(c2ccc3nc(C(=O)Nc4cn5cc(C)nc5c(C)n4)sc3n2)CC1` [Compound 119, N-(2,8-dimethylimidazo[1,2-a]pyrazin-6-yl)-5-(4-ethylpiperazin-1-yl)thiazolo[5,4-b]pyridine-2-carboxamide], the IC50 was 100 to 1000 nM. In the case of `COc1cc2nn(C)cc2cc1NC(=O)c1nc2ccc(N3CC[C@@H](N4CCC4)C3)nc2s1` [Compound 120, (R)-5-(3-(azetidin-1-yl)pyrrolidin-1-yl)-N-(6-methoxy-2-methyl-2H-indazol-5-yl)thiazolo[5,4-b]pyridine-2-carboxamide], the IC50 is reported as 100 to 1000 nM. `COc1cc2nn(C)cc2cc1NC(=O)c1nc2ccc(N3CC[C@H](N4CCC4)C3)nc2s1` [Compound 121, (S)-5-(3-(azetidin-1-yl)pyrrolidin-1-yl)-N-(6-methoxy-2-methyl-2H-indazol-5-yl)thiazolo[5,4-b]pyridine-2-carboxamide] showed an IC50 of 100 to 1000 nM. With `Cc1cn2cc(NC(=O)c3nc4ccc(N5CCC(N6CCC6)C5)nc4s3)nc(C)c2n1` (stereo not drawn) [Compound 122, 5-(3-(azetidin-1-yl)pyrrolidin-1-yl)-N-(2,8-dimethylimidazo[1,2-a]pyrazin-6-yl)thiazolo[5,4-b]pyridine-2-carboxamide] the IC50 was 1000 to 9000 nM. Work on `Cc1cn2cc(NC(=O)c3nc4ccc(C5CCNCC5)nc4s3)cc(F)c2n1` [Compound 129, N-(8-fluoro-2-methylimidazo[1,2-a]pyridin-6-yl)-5-(piperidin-4-yl)thiazolo[5,4-b]pyridine-2-carboxamide] yielded an IC50 of less than 100 nM. With `Cc1cn2cc(NC(=O)c3nc4ccc(C5=CC6CCC(C5)N6)nc4s3)cc(F)c2n1` (stereo not drawn) [Compound 130, 5-(8-azabicyclo[3.2.1]oct-2-en-3-yl)-N-(8-fluoro-2-methylimidazo[1,2-a]pyridin-6-yl)thiazolo[5,4-b]pyridine-2-carboxamide] the IC50 was less than 100 nM. Compound `Cc1cn2cc(NC(=O)c3nc4ccc(C5CCN(C)C5)nc4s3)cc(F)c2n1` (stereo not drawn) [Compound 131, N-(8-fluoro-2-methylimidazo[1,2-a]pyridin-6-yl)-5-(1-methylpyrrolidin-3-yl)thiazolo[5,4-b]pyridine-2-carboxamide] has an IC50 of less than 100 nM. For `Cc1cn2cc(NC(=O)c3nc4ccc(C5=CC(C)(C)NC(C)(C)C5)nc4s3)cc(F)c2n1` [Compound 132, N-(8-fluoro-2-methylimidazo[1,2-a]pyridin-6-yl)-5-(2,2,6,6-tetramethyl-1,2,3,6-tetrahydropyridin-4-yl)thiazolo[5,4-b]pyridine-2-carboxamide], the IC50 was less than 100 nM. In the case of `Cc1cn2cc(NC(=O)c3nc4ccc(C5=CCCN(C)C5)nc4s3)cc(F)c2n1` [Compound 133, N-(8-fluoro-2-methylimidazo[1,2-a]pyridin-6-yl)-5-(1-methyl-1,2,5,6-tetrahydropyridin-3-yl)thiazolo[5,4-b]pyridine-2-carboxamide], the IC50 is reported as less than 100 nM. In the case of `Cc1cn2cc(NC(=O)c3nc4ccc(C5CCCN(C)C5)nc4s3)cc(F)c2n1` (stereo not drawn) [Compound 134, N-(8-fluoro-2-methylimidazo[1,2-a]pyridin-6-yl)-5-(1-methylpiperidin-3-yl)thiazolo[5,4-b]pyridine-2-carboxamide], the IC50 is reported as less than 100 nM. In the case of `COc1cc2nn(C)cc2cc1NC(=O)c1nc2ccc(C3CCN(C)CC3)nc2s1` [Compound 135, N-(6-methoxy-2-methyl-2H-indazol-5-yl)-5-(1-methylpiperidin-4-yl)thiazolo[5,4-b]pyridine-2-carboxamide], the IC50 is reported as 100 to 1000 nM. With `Cc1cn2cc(NC(=O)c3nc4ccc(C5CCN(C)CC5)nc4s3)nc(C)c2n1` [Compound 136, N-(2,8-dimethylimidazo[1,2-a]pyrazin-6-yl)-5-(1-methylpiperidin-4-yl)thiazolo[5,4-b]pyridine-2-carboxamide] the IC50 was 1000 to 9000 nM. In the case of `COc1cc2nn(C)cc2cc1NC(=O)c1nc2ccc(C3CCN(C)C3)nc2s1` (stereo not drawn) [Compound 137, N-(6-methoxy-2-methyl-2H-indazol-5-yl)-5-(1-methylpyrrolidin-3-yl)thiazolo[5,4-b]pyridine-2-carboxamide], the IC50 is reported as less than 100 nM. In the case of `Cc1cn2cc(NC(=O)c3nc4ccc(C5CCN(C)C5)nc4s3)nc(C)c2n1` (stereo not drawn) [Compound 138, N-(2,8-dimethylimidazo[1,2-a]pyrazin-6-yl)-5-(1-methylpyrrolidin-3-yl)thiazolo[5,4-b]pyridine-2-carboxamide], the IC50 is reported as 100 to 1000 nM. Compound `Cc1cn2cc(NC(=O)c3nc4ccc(C5C[C@@H](C)N[C@@H](C)C5)nc4s3)cc(F)c2n1` (stereo partly drawn) [Compound 139, 5-[(2S,6R)-2,6-dimethyl-4-piperidyl]-N-(8-fluoro-2-methyl-imidazo[1,2-a]pyridin-6-yl)thiazolo[5,4-b]pyridine-2-carboxamide] has an IC50 of less than 100 nM. For `Cc1cn2cc(NC(=O)c3nc4ccc(C5=C[C@@H](C)N[C@@H](C)C5)nc4s3)cc(F)c2n1` [Compound 140, 5-[(2S,6R)-2,6-dimethyl-1,2,3,6-tetrahydropyridin-4-yl]-N-(8-fluoro-2-methyl-imidazo[1,2-a]pyridin-6-yl)thiazolo[5,4-b]pyridine-2-carboxamide], the IC50 was less than 100 nM. With `Cc1cn2cc(NC(=O)c3cc4ncc(C5CC6CCC(C5)N6)nc4s3)cc(F)c2n1` (stereo not drawn) [Compound 142, 3-(8-azabicyclo[3.2.1]octan-3-yl)-N-(8-fluoro-2-methylimidazo[1,2-a]pyridin-6-yl)thieno[2,3-b]pyrazine-6-carboxamide] the IC50 was 100 to 1000 nM. `Cc1cn2cc(NC(=O)c3cc4ncc(C5CCCCN5)nc4s3)cc(F)c2n1` (stereo not drawn) [Compound 144, N-(8-fluoro-2-methylimidazo[1,2-a]pyridin-6-yl)-3-(piperidin-2-yl)thieno[2,3-b]pyrazine-6-carboxamide] gave an IC50 of 1000 to 9000 nM. For `Cc1cn2cc(NC(=O)c3cc4ncc(C5CCNC5)nc4s3)cc(F)c2n1` (stereo not drawn) [Compound 146, N-(8-fluoro-2-methylimidazo[1,2-a]pyridin-6-yl)-3-(pyrrolidin-3-yl)thieno[2,3-b]pyrazine-6-carboxamide], the IC50 was less than 100 nM. With `Cc1cn2cc(NC(=O)c3cc4ncc(C5=CCNCC5)nc4s3)cc(F)c2n1` [Compound 147, N-(8-fluoro-2-methylimidazo[1,2-a]pyridin-6-yl)-3-(1,2,3,6-tetrahydropyridin-4-yl)thieno[2,3-b]pyrazine-6-carboxamide] the IC50 was less than 100 nM.

Source: patent US20260035387A1 (BIOGEN MA INC., priority 2022, published 2026)
